# Measured values from patent US20260258420A1, “COMPOSITIONS AND METHODS FOR THE TREATMENT OF HUMAN PAPILLOMAVIRUS-DRIVEN CANCERS” (priority 2023, published 2026).
# Tests used:
# Format in all cases: cell-based
# [1] = system: HPV-negative cancer cell lines (UMSCC19, FaDu, and HN31); assay: BrdU-TUNEL apoptosis assay, HPV-negative cell lines; details: 50 nmol/L barasertib or 200 nmol/L alisertib, 72 hours or 2 doubling times
# Description: BrdU positive apoptotic cells were detected and quantified. The bar graph indicates the percentage of apoptotic cells with fragmented DNA in HPV-positive and HPV-negative cell lines. Values are the means±the standard deviations for 3 independent experiments. FIG. 2B and FIG. 2C show immunoblots of cleaved PARP (Cl. PARP) and cleaved caspase-3 (Cl. Caspase-3) levels in 3-HPV positive and 3 HPV-negative cell lines after barasertib or alisertib treatment for 2 doubling times (FIG. 2B) or 72 hours (FIG. 2C). […] UM47, UMSCC47; GAPDH, glyceraldehyde 3-phosphate dehydrogenase.
# To measure apoptosis, TUNEL staining was performed with an APO-BRDU Kit (BD Biosciences, San Jose, CA) and annexin V/propidium iodide staining with an FITC Annexin V Apoptosis Detection Kit PE (eBioscience, San Diego, CA) as described previously (Kalu, et al., Cancer Lett 2018; 431:64-72). […] Data were acquired with a 3-laser, 10-color Gallios flow cytometer (Beckman Coulter, Brea, CA) and analyzed using Kaluza software, RRID:SCR_016182 (Beckman Coulter, Brea, CA). […] Briefly, after drug treatment, cells were incubated with Senescence Green Probe, a fluorescence-based reagent that contains 2 galactoside moieties that make it specific to […]. The enzyme-cleaved product is retained within the cell, and it emits a fluorogenic signal that was measured at 490/514 nm using a flow cytometer. […]
# [2] = system: two HPV-positive cell lines transfected with E7 siRNA; assay: Apoptosis immunoblot in HPV-positive cells with E7 siRNA; details: 300 nmol/L, 24 hours
# Description: (§1) Each data point represents 1 cell line. Box plots show the median pRb […] levels and 95% confidence intervals across all cell lines in the category. t-test P=0.0097. FIG. 4B, HPV-negative HNSCC cells (HN31, UMSCC4, and MDA886LN) were infected with distinct, lentivirus-based shRNAs (Sh2, Sh4, and Sh6) to stably knock down the expression of RB1 or were treated with control (Ctrl) shRNA. Cells were then treated with 300 nmol/L alisertib for 24 hours before annexin V-PE/7AAD staining and analysis with flow cytometry. The bar graph represents the ratio of apoptosis (late plus early) among different groups. Values are the means±the standard deviations for 3 independent experiments. *P<0.05; **P<0.005; unpaired, 2-tailed Student t-test. FIG. 4C, cells from FIG. 4B were treated with 300 nmol/L alisertib for 24 hours before lysis and immunoblotting with the indicated antibodies. FIG. 4D-E, HN31 cells were stably transfected with an E7 plasmid and treated with 300 nmol/L alisertib for 24 hours before lysis and immunoblotting with (FIG. 4D) the indicated antibodies or (FIG. 4E) annexin-PE staining to measure apoptosis. Values are the means±the standard deviations for 3 independent experiments. ** P≤0.01; *** P≤0.001. FIG. 4F, two HPV-positive cell lines were transfected with 10 nmol/L siRNA oligonucleotides specific to E7 or with control oligonucleotides. […]
# [3] = system: 16 HPV-positive HNSCC and cervical squamous cancer cell lines; assay: High-throughput drug screen (HTDS), cell death by AOC_LD, HPV-positive cell lines
# Description: (§2) The concordance correlation coefficient was computed to assess the reproducibility of the normalized growth rates of the 2 replicates. […] A chi-square test was applied to compare drug classification and the cluster membership. The Fisher exact test was applied to compare mutations status (wild-type and mutant) and drugs' response data (sensitive and resistant).
# (§3) The effects of 864 unique drugs from 51 classes was tested in 16 HPV-positive and 17 HPV-negative HNSCC and cervical squamous cancer cell lines (Table 2) that were characterized previously (Kaiu, et al., Oncotarget 2017; 8(49):86369-83).
# [4] = system: HN31 cells stably transfected with an E7 plasmid; assay: Apoptosis in HPV-negative cells overexpressing E7; details: 300 nmol/L, 24 hours
# Description: as §1
# [5] = system: 17 HPV-negative HNSCC and cervical squamous cancer cell lines; assay: High-throughput drug screen (HTDS), cell death by AOC_LD, HPV-negative cell lines
# Description: as §2, §3
# [6] = system: HPV-negative HNSCC cells (HN31, UMSCC4, and MDA886LN) with RB1 knockdown; assay: Apoptosis after RB1 depletion in HPV-negative cells (annexin V, immunoblot)
# Description: FIG. 4B, HPV-negative HNSCC cells (HN31, UMSCC4, and MDA886LN) were infected with distinct, lentivirus-based shRNAs (Sh2, Sh4, and Sh6) to stably knock down the expression of RB1 or were treated with control (Ctrl) shRNA. Cells were then treated with 300 nmol/L alisertib for 24 hours before annexin V-PE/7AAD staining and analysis with flow cytometry. The bar graph represents the ratio of apoptosis (late plus early) among different groups. Values are the means±the standard deviations for 3 independent experiments. *P<0.05; **P<0.005; unpaired, 2-tailed Student t-test. FIG. 4C, cells from FIG. 4B were treated with 300 nmol/L alisertib for 24 hours before lysis and immunoblotting with the indicated antibodies. […] Representative results from 3 independent experiments are shown. Cl, cleaved; Fl, full length; GAPDH, glyceraldehyde 3-phosphate dehydrogenase; Ox, overexpression.
# To measure apoptosis, TUNEL staining was performed with an APO-BRDU Kit (BD Biosciences, San Jose, CA) and annexin V/propidium iodide staining with an FITC Annexin V Apoptosis Detection Kit PE (eBioscience, San Diego, CA) as described previously (Kalu, et al., Cancer Lett 2018; 431:64-72). […] Data were acquired with a 3-laser, 10-color Gallios flow cytometer (Beckman Coulter, Brea, CA) and analyzed using Kaluza software, RRID:SCR_016182 (Beckman Coulter, Brea, CA). Assays were performed in triplicate, and each test was completed twice on different days.
# The lentiviral-based shRNA (GIPZ plasmid) used to knock down human RB1 expression was purchased from Horizon Discovery (Waterbeach, United Kingdom). On the basis of the knockdown efficiency of Rb1 protein expression in 3 HPV-negative cell lines (HN31, UMSCC4, and MDA88 6LN), shRblclones were selected (#2, #4, and #6) for this study. […] The mature antisense sequences were as follows: 5′-[sequence]-3′ (SEQ ID NO:1) (shRb1 #2), 5′-[sequence]-3′ (SEQ ID NO:2) (shRb1 #4), and 5′-[sequence]-3′ (SEQ ID NO:3) (shRb1 #6). To generate lentivirus-expressing shRNA for RB1, HEK 293T cells were transfected with GIPZ-non-silence (for the vector control virus) and GIPZ-shRB1 with jetPEI transfection reagent (RRID:CVCL_0063). The medium was changed 24 hours after transfection and then collected every 48 hours thereafter. The collected lentivirus-containing medium was centrifuged and then filtered (0.45 μM).
# [7] = sensitive = AOC_LD greater than 0
# [8] = RB1 shRNA, 300 nmol/L, 24 hours
smiles,measurement,setting,value
"COc1cc(Nc2ncc3c(n2)-c2ccc(Cl)cc2C(c2c(F)cccc2OC)=NC3)ccc1C(=O)O [ALISERTIB, alisertib]",apoptosis (TUNEL),[1],no appreciable levels of apoptosis
same,apoptosis with and without E7 knockdown (increased Rb expression),[2],caused apoptosis in the HPV-positive cell lines but not in the same cells with increased Rb expression
same,HPV positive Resistant (number of cell lines),[3]; resistant = AOC_LD 0,6
same,HPV positive Sensitive (number of cell lines),[3]; [7],10
same,"apoptosis (cleaved caspase-3, PARP, annexin V)",[4],selectively enhanced apoptosis
same,HPV negative Resistant (number of cell lines),[5]; resistant = AOC_LD 0,16
same,HPV negative Sensitive (number of cell lines),[5]; [7],1
same,cleaved PARP levels,[6]; RB1 depleted by transient transfection,increase in cleaved PARP levels
same,apoptosis (cleaved caspase-3 and cleaved PARP) in cells with reduced Rb levels,[6]; [8],induced significant apoptosis
same,increase in annexin V-positive apoptotic cells when Rb was depleted,[6]; [8],approximately 3 fold
same,apoptosis in control cells with detectable Rb protein levels,"[6]; control shRNA, 300 nmol/L, 24 hours",did not induce apoptosis
